Test results: patent publication US9284321B2, “Piperazino[1,2-a]indol-1-ones and [1,4]diazepino[1,2-a]indol-1-one” (Hoffmann-La Roche Inc., priority 2012, dated 2016)

Key:
[1] = system: human embryonic stem cell derived neural stem cells (NSCs); assay: Neural Stem Cell Proliferation Assay (neurogenesis assay, ATP levels by CellTiterGlo); type: cell-based; settings: 96 h, compound concentration at which 150% activity of control (100%) is reached, NSC proliferation by ATP level after 4 days incubation, dose response 8 μM to 8 nM
Method: Neurogenic properties of small molecules are determined based on the proliferation of human embryonic stem cell derived neural stem cells (NSCs) which were derived via a dual smad inhibition as previously described (Chambers, S. M., et al., Highly efficient neural conversion of human ES and iPS cells by dual inhibition of SMAD signaling, Nature biotechnology, 2009. 27(3): p. 275-80.)
Compounds respond is measured by the increase in cells based on ATP levels
(Promega:CellTiterGlo®) after an incubation period of 4 days.
NSCs are thawed and expanded over 3 passages. On the 14th day, NSCs are seeded in Polyornithin/Laminin coated 384 well plates at a cell density of 21′000 cells/cm^2 in a media volume of 38 μl.
4 hours after cell seeding, compound solutions are added at a volume of 2 μl. Stock solutions of the compounds (water, 5% DMSO) are diluted to obtain a dose response (11 points, dilution factor is 2), ranging from 8 μM to 8 nM. Controls are run to consistently determine the neurogenic properties of the cells:
Negative (neutral) control is cell culture Media (final DMSO concentration: 0.25%).
• 1. cell culture Media+100 ng/ml FGF2 (final DMSO concentration: 0.1%) • 2. cell culture Media+20 ng/ml EGF (final DMSO concentration: 0.1%) • 3. cell culture Media+100 ng/ml Wnt3a (final DMSO concentration: 0.1%)
After 4 days incubation at 37° C., 5% CO2, the amount of ATP per well is quantified. The ATP concentration is proportional to the cell number. ATP is quantified by using the Promega CellTiterGlo® kit. The CellTiterGlo® reagents contain a cell lysis buffer, a thermo stable luciferase (UltraGlo™ recombinant luciferase), magnesium and luciferin. Luciferin reacts with ATP producing oxyluciferin, AMP and light. The luminescence signal is proportional to the ATP content.
The value of negative (neutral) control is determined for each assay plate by taking the average of 16 negative control wells. The neurogenic compound response is calculated for each compound as (compound/Negative Control)*100.
The values of EC150 from the dose response curve are determined for each test compound. The EC150 is the compound concentration at which 150% activity of control (100%) is reached.

Compound | melting point | EC (150% of control) [1]
N#Cc1cc(-c2ccccc2)c2c(c1)cc1n2CCCNC1=O [Example 274, 1-Oxo-7-phenyl-2,3,4,5-tetrahydro-[1,4]diazepino[1,2-a]indole-9-carbonitrile] | 237.5 °C | 1.1 µM
N#Cc1cc(-c2ccc(F)cc2F)c2c(c1)cc1n2CCCNC1=O [Example 221, 7-(2,4-Difluorophenyl)-1-oxo-2,3,4,5-tetrahydro-[1,4]diazepino[1,2-a]indole-9-carbonitrile] | 216.5 °C | 0.073 µM
N#Cc1cc(-c2ccc([N+](=O)[O-])cc2)c2c(c1)cc1n2CCNC1=O [Example 232, 6-(4-Nitrophenyl)-1-oxo-3,4-dihydro-2H-pyrazino[1,2-a]indole-8-carbonitrile] | 369.5 °C | 0.02 µM
COc1ccc(-c2c(F)c(F)cc3cc4n(c23)CCNC4=O)cc1 [Example 39, 7,8-Difluoro-6-(4-methoxy-phenyl)-3,4-dihydro-2H-pyrazino[1,2-a]indol-1-one] | 274.5 °C | 0.005 µM
Cc1c2n(c3c(-c4ccc(Cl)cc4F)cc(C#N)cc13)CCNC2=O [Example 180, 6-(4-Chloro-2-fluoro-phenyl)-10-methyl-1-oxo-1,2,3,4-tetrahydro-pyrazino[1,2-a]indole-8-carbonitrile] | 270 °C | 0.008 µM
N#Cc1ccc(-c2cc(C#N)cc3cc4n(c23)CCCNC4=O)cc1 [Example 237, 7-(4-Cyanophenyl)-1-oxo-2,3,4,5-tetrahydro-[1,4]diazepino[1,2-a]indole-9-carbonitrile] | 257 °C | 0.22 µM
O=C1NCCn2c1cc1cc(OC(F)(F)F)cc(-c3ccc(C(F)(F)F)cc3)c12 [Example 216, 8-(Trifluoromethoxy)-6-[4-(trifluoromethyl)-phenyl]-3,4-dihydro-2H-pyrazino[1,2-a]indol-1-one] | 243 °C | 0.022 µM
Cc1c2n(c3c(-c4cccc(F)c4)cc(C#N)cc13)CCCNC2=O [Example 289, 7-(3-Fluorophenyl)-11-methyl-1-oxo-2,3,4,5-tetrahydro-[1,4]diazepino[1,2-a]indole-9-carbonitrile] | 261 °C | 0.035 µM
Cc1c2n(c3c(-c4ccc(Cl)nc4)cc(C#N)cc13)CCNC2=O [Example 278, 6-(6-Chloropyridin-3-yl)-10-methyl-1-oxo-3,4-dihydro-2H-pyrazino[1,2-a]indole-8-carbonitrile] | 318 °C | 0.44 µM
O=C1NCCn2c1cc1cc(F)cc(-c3ccc(C(F)(F)F)cc3)c12 [Example 25, 8-Fluoro-6-(4-trifluoromethyl-phenyl)-3,4-dihydro-2H-pyrazino[1,2-a]indol-1-one] | 346 °C | 0.023 µM
COc1ccc(-c2cc(C)cc3cc4n(c23)CCCNC4=O)cc1 [Example 56, 7-(4-Methoxy-phenyl)-9-methyl-2,3,4,5-tetrahydro-[1,4]diazepino[1,2-a]indol-1-one] | 208 °C | 0.35 µM
O=C1NCCCn2c1cc1cc(F)cc(-c3ccc(C(F)(F)F)cc3)c12 [Example 31, 9-Fluoro-7-(4-trifluoromethyl-phenyl)-2,3,4,5-tetrahydro-[1,4]diazepino[1,2-a]indol-1-one] | 257 °C | 0.056 µM
Cc1c2n(c3c(-c4ccc(Cl)cc4Cl)cc(C#N)cc13)CCCNC2=O [Example 206, 7-(2,4-Dichlorophenyl)-11-methyl-1-oxo-2,3,4,5-tetrahydro-[1,4]diazepino[1,2-a]indole-9-carbonitrile] | 257 °C | 0.031 µM
Cc1c2n(c3c(-c4ccc(F)c(F)c4F)cc(C#N)cc13)CCNC2=O [Example 246, 10-Methyl-1-oxo-6-(2,3,4-trifluorophenyl)-3,4-dihydro-2H-pyrazino[1,2-a]indole-8-carbonitrile] | 238 °C | 0.084 µM
C[C@@H]1CNC(=O)c2cc3cc(F)cc(-c4ccncc4)c3n21 [Example 7, (R)-8-Fluoro-4-methyl-6-pyridin-4-yl-3,4-dihydro-2H-pyrazino[1,2-a]indol-1-one] | 294.5 °C | 0.4 µM
Cc1c2n(c3c(-c4ccc(Cl)cc4)cc(F)cc13)CCNC2=O [Example 73, 6-(4-Chloro-phenyl)-8-fluoro-10-methyl-3,4-dihydro-2H-pyrazino[1,2-a]indol-1-one] | 209.5 °C | 0.017 µM

Compound | melting point | EC (150% of control) [1]
O=C1NCCn2c1cc1cc(Cl)cc(-c3ccc(F)c(F)c3)c12 [Example 50, 8-Chloro-6-(3,4-difluoro-phenyl)-3,4-dihydro-2H-pyrazino[1,2-a]indol-1-one] | 277.5 °C | 0.13 µM
Cc1c2n(c3c(-c4ccc(C(C)C)cc4)cc(F)cc13)CCNC2=O [Example 127, 8-Fluoro-6-(4-isopropyl-phenyl)-10-methyl-3,4-dihydro-2H-pyrazino[1,2-a]indol-1-one] | 177 °C | 0.025 µM
C[C@@H]1CNC(=O)c2cc3cc(F)cc(-c4ccc(F)c(F)c4)c3n21 [Example 10, (R)-6-(3,4-Difluoro-phenyl)-8-fluoro-4-methyl-3,4-dihydro-2H-pyrazino[1,2-a]indol-1-one] | 267 °C | 0.22 µM
N#Cc1cc(-c2ccc(F)nc2)c2c(c1)cc1n2CCCNC1=O [Example 272, 7-(6-Fluoropyridin-3-yl)-1-oxo-2,3,4,5-tetrahydro-[1,4]diazepino[1,2-a]indole-9-carbonitrile] | 264.5 °C | 
N#Cc1cc(-c2cncnc2)c2c(c1)cc1n2CCCNC1=O [Example 273, 1-Oxo-7-pyrimidin-5-yl-2,3,4,5-tetrahydro-[1,4]diazepino[1,2-a]indole-9-carbonitrile] | 277 °C | 
Cc1c2n(c3c(-c4cc(Cl)cc(Cl)c4)cc(C#N)cc13)CCNC2=O [Example 293, 6-(3,5-Dichlorophenyl)-10-methyl-1-oxo-3,4-dihydro-2H-pyrazino[1,2-a]indole-8-carbonitrile] | 347 °C | 
CC(C)(C)c1ccc(-c2cc(C#N)cc3cc4n(c23)CCCNC4=O)cc1 [Example 270, 7-(4-tert-Butylphenyl)-1-oxo-2,3,4,5-tetrahydro-[1,4]diazepino[1,2-a]indole-9-carbonitrile] | 215 °C | 
N#Cc1cc(-c2ccc(Cl)c(C(F)(F)F)c2)c2c(c1)cc1n2CCCNC1=O [Example 254, 7-[4-Chloro-3-(trifluoromethyl)phenyl]-1-oxo-2,3,4,5-tetrahydro-[1,4]diazepino[1,2-a]indole-9-carbonitrile] | 224.5 °C | 
Cc1c2n(c3c(-c4cncnc4)cc(C#N)cc13)CCCNC2=O [Example 299, 11-Methyl-1-oxo-7-pyrimidin-5-yl-2,3,4,5-tetrahydro-[1,4]diazepino[1,2-a]indole-9-carbonitrile] | 304 °C | 
N#Cc1cc(-c2ccc(Cl)nc2)c2c(c1)cc1n2CCCNC1=O [Example 265, 7-(6-Chloropyridin-3-yl)-1-oxo-2,3,4,5-tetrahydro-[1,4]diazepino[1,2-a]indole-9-carbonitrile] | 204 °C | 
Cc1c2n(c3c(-c4cccc(Cl)c4)cc(C#N)cc13)CCNC2=O [Example 268, 6-(3-Chlorophenyl)-10-methyl-1-oxo-3,4-dihydro-2H-pyrazino[1,2-a]indole-8-carbonitrile] | 254 °C | 
N#Cc1cc(-c2cccnc2)c2c(c1)cc1n2CCCNC1=O [Example 263, 1-Oxo-7-pyridin-3-yl-2,3,4,5-tetrahydro-[1,4]diazepino[1,2-a]indole-9-carbonitrile] | 252 °C | 
N#Cc1cc(-c2cc(Cl)cc(Cl)c2)c2c(c1)cc1n2CCCNC1=O [Example 286, 7-(3,5-Dichlorophenyl)-1-oxo-2,3,4,5-tetrahydro-[1,4]diazepino[1,2-a]indole-9-carbonitrile] | 244 °C | 
N#Cc1cc(-c2ccc(N)nc2)c2c(c1)cc1n2CCCNC1=O [Example 264, 7-(6-Aminopyridin-3-yl)-1-oxo-2,3,4,5-tetrahydro-[1,4]diazepino[1,2-a]indole-9-carbonitrile] | 314.5 °C | 
Cc1c2n(c3c(-c4ccc(Cl)nc4)cc(F)cc13)CCNC2=O [Example 144, 6-(6-Chloro-pyridin-3-yl)-8-fluoro-10-methyl-3,4-dihydro-2H-pyrazino[1,2-a]indol-1-one] |  | 0.081 µM
